In patent US10894794B1, “Substituted [1,2,4]triazolo[4,3-a]pyrazines as antidiabetics” (King Abdulaziz University, priority 2019, dated 2021):

What was measured:
STZ-diabetic mice = assay: Fasting blood glucose of diabetic mice during six days of treatment; assay type: in vivo; conditions: for activity in controlling the rise of blood glucose levels in streptozotocin diabetic animals (in words) / control of fasting blood sugar compared with sitagliptin and the other compounds (in words): 50 mg/kg/day; for activity in controlling the rise of blood glucose levels in streptozotocin diabetic animals (in words): 6-day interval; for control of fasting blood sugar compared with sitagliptin and the other compounds (in words): 6 days; for Blood glucose level, fasting: 50 mg/kg/day oral, diabetic mice, mean ± SEM
Description: Our objective was to test the efficacy of the synthesized compounds for their potential to reduce blood glucose in STZ-diabetic mice. The synthesized compounds Nos. 128, 129, 130, 131,140, 142 were expected to act through the inhibition of the DPP-IV enzyme, which is responsible for the degradation of the entero-peptide GLP-I. In turn, GLP-I increases insulin and decreases glucagon release from the pancreatic islets (β and α-cells respectively). So this part of the project was designed to study the effect of the synthesized gliptin simulated compounds on blood glucose levels and their efficacy to increase glucose utilization in diabetic mice through: • a. The effect of the tested compounds in a dose of 50 mg/kg/day on fasting blood glucose blood levels of diabetic mice during six days of treatment. • b. Oral glucose tolerance test (OGTT) through oral glucose loading, 2 h after treatment with single oral dose (50 mg/kg) of the tested compounds in 14 h overnight fasted mice. • c. OGTT through oral glucose loading, 2 h after treatment with the 6th oral dose (50 mg/kg) of the tested compounds in 14 h overnight fasted mice. • d. The effect of the pretreatment with the tested compounds at an oral dose of 50 mg/kg on blood glucose levels, 3 h before and 3 h after meal feeding (feeding for one hour only, then food was removed immediately) in 14 h overnight-fasted diabetic mice.
(§1) Blood samples were collected from the tail vein and the blood glucose level was determined. Curves of blood glucose levels (mg/dL) versus the time intervals (min) were constructed and the area under the curves (AUCs) were calculated by the method of calculation embedded in GraphPad Prism® v. 5.0 (GraphPad Software, San Diego, Calif., USA). AUCs of the curves of the different groups were compared and tested for significance against control groups.
All data are presented as means±SEM. Statistical significance was evaluated by analysis of variance (ANOVA) followed by Tukey-Kramer's post hoc test for multiple comparisons. The “t” of the paired data was used to test the significance of the values of the fasting blood glucose compared to the values before treatment. Statistical significance was accepted at a level of p<0.05.

[1] = test system: 14 h overnight-fasted diabetic mice; assay: Blood glucose after introduction of food for one hour (meal tolerance test); assay type: in vivo; conditions: for antihyperglycemic activity after introduction of food (blood glucose rise and total AUC(0-180), in words): 50 mg/kg, 3 h before introduction of food; for Area under the curve AUC(0-180) after meal feeding: Day 1, 50 mg/kg oral, 3 hr pretreated
Experimental: The rational of this test was to determine the ability of the tested compounds to modulate glucose utilization after the introduction of food, after 3 h of drug administration to 14 h overnight-fasted mice (feeding with normal diet was done for 1 hr only, then food was removed during the remaining time of the test). This model is analogous to oral glucose tolerance tests (OGTT) used clinically to evaluate glycemic control, except that the meal was composed of fats, proteins and carbohydrates, and thus was a more realistic representation of the nutritional makeup of normal food. The main purpose is that during meal digestion, food contents e.g. carbohydrates, proteins and fats, were reported to cause an increase in the production of the GLP-I from the L-cells in ileum and colon. The produced GLP-I goes into circulation directly and affects insulin secretion from pancreatic β-cells. Both the GPL-I and insulin levels are expected to be high especially in the presence of a […] inhibitor.
Animals were Distributed Between 17 Groups (n=6) as Follows: • a. Group 1. Animals of this group were overnight-fasted normoglycemic mice and received the vehicle (1% CMC-Na) at a volume of 10 ml/kg/day for 4 consecutive days. • b. Group 2: overnight-fasted diabetic mice received the vehicle (1% CMC-Na) at a volume of 10 ml/kg/day for 4 consecutive days and served as a negative control. • c. Group 3: overnight fasted diabetic mice received sitagliptin at a dose of 50 mg/kg/day for 4 consecutive days in 1% CMC (in a volume of 10 ml/kg) and served as positive control. • d. Groups 4-19: Animals of these groups were overnight-fasted diabetic mice and received the tested compounds 128, 129, 130, 131,140, 142 at a dose of 50 mg/kg/day for 4 consecutive days in 1% CMC (volume of 10 ml/kg). Food was introduced for one hour only then food was removed immediately. Blood glucose levels were determined just before and 3 h after drug administration and then at 0, 60, 120 and 180 min after meal. Blood Sampling and Blood Glucose Determination
as §1

DPP-IV enzyme = DPP-IV enzyme (Homo sapiens (Human), UniProt P27487); assay: DPP-IV inhibition assay (Biovision kit, fluorescence); assay type: biochemical; conditions: read-out: IC50 (DPP4 inhibition)
Sequence of DPP-IV enzyme (P27487 whole entry, species assumed): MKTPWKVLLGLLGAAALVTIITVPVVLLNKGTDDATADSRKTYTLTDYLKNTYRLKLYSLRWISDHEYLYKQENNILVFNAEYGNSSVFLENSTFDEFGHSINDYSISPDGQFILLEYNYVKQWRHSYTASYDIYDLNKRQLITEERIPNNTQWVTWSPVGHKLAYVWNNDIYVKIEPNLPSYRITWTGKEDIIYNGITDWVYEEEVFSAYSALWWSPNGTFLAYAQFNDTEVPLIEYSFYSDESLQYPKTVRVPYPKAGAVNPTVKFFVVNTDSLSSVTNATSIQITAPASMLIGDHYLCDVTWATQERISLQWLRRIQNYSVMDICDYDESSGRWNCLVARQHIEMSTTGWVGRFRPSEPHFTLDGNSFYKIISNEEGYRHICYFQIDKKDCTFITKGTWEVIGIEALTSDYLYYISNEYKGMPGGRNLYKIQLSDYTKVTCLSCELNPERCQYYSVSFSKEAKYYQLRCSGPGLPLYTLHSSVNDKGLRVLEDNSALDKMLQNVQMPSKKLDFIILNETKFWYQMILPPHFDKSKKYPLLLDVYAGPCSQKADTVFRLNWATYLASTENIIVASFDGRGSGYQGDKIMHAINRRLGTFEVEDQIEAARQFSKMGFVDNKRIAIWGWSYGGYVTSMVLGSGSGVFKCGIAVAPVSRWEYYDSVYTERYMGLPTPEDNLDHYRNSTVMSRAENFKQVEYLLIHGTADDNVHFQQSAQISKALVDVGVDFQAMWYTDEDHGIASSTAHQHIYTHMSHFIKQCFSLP
Experimental: Sitagliptin phosphate monohydrate and the different tested compounds were dissolved in dimethyl sulphoxide (DMSO) and diluted with tris buffer (pH 8.0, 50 mM) to achieve the required concentrations. DPP-IV inhibition assay was conducted using a kit purchased from Biovision (Milpitas, Calif., USA). Briefly, DPP-IV enzyme was diluted with tris buffer and pipetted 50 μl into glass mini-cells. Subsequently the 25 μl of tris buffer, sitagliptin phosphate monohydrate or the tested compounds was added and incubated at 37° C. for 20 min protected from light. Finally, a volume of 25 μl of DPP-IV substrate was added into each tube. The fluorescence generated from hydrolysis of the substrate was read at Ex/Em=360/460 nm using Modulus® single tube multimode reader (Promega, USA). Baseline fluorescence was recorded before incubation (R1) and 20 min after incubation (R2). Percentage inhibition was calculated according to the following equation: […] where, ΔRFU=R2−R1 and EC is the enzyme control (enzyme solution without inhibitor) which is considered 100% activity.
The standard DPP-IV inhibitor drug sitagliptin was employed as positive control. […] Sigmoidal dose-response curves for DPP-IV % inhibition versus log concentrations were plotted using Graphpad prism software, version 5.00 (GraphPad Software, Inc. La Jolla, Calif., USA). The IC50 value corresponds to the concentration of sample needed to inhibit DPP-IV by 50%.

Compound	activity in controlling the rise of blood glucose levels in streptozotocin diabetic animals (in words) (STZ-diabetic mice)	control of fasting blood sugar compared with sitagliptin and the other compounds (in words) (STZ-diabetic mice)	Blood glucose level, fasting (STZ-diabetic mice; Day 1) [mg/dL]	Blood glucose level, fasting (STZ-diabetic mice; Day 4) [mg/dL]	Blood glucose level, fasting (STZ-diabetic mice; Day 5) [mg/dL]	antihyperglycemic activity after introduction of food (blood glucose rise and total AUC(0-180), in words) [1]	IC50 (DPP-IV enzyme) [nM]	Area under the curve AUC(0-180) after meal feeding [1]	control of fasting blood sugar compared with sitagliptin and the other compounds (in words) (STZ-diabetic mice; listed as 130)
N#Cc1cccc(NC(=O)CN2CCn3c(nnc3C(F)(F)F)C2)c1 [GLP-142]	significant activity	comparable to that of sitagliptin	230.0 ± 13.769	188.8 ± 25.784	205.4 ± 39.315	significant antihyperglycemic activity	0.18	–	–
O=C(CN1CCn2c(nnc2C(F)(F)F)C1)NC1CCCCC1 [GLP-140]	significant activity	comparable to that of sitagliptin	210.0 ± 12.345	–	–	significant antihyperglycemic activity	1.84	72873 ± mg · dL^−1 · min	–
C[C@H](NC(=O)c1cccc(Cl)c1)C(=O)N1CCn2c(nnc2C(F)(F)F)C1 [GLP-130]	significant activity	most consistent and extended activities	–	–	–	significant antihyperglycemic activity	0.21	50478 ± mg · dL^−1 · min	comparable to that of sitagliptin
